According to paper PMC9873280, “In silico identification and biological evaluation of a selective MAP4K4 inhibitor against pancreatic cancer” (Journal of Enzyme Inhibition and Medicinal Chemistry, 2023):

target: T1, MAP4K7 (Homo sapiens, UniProt Q9UKE5); assay: kinase profiling panel; format: biochemical; settings: read-out: % inhibition at 150 nM
T1 construct: gene TNIK; recombinant kinase of a commercial 81-kinase panel
T1 sequence (Q9UKE5 whole entry): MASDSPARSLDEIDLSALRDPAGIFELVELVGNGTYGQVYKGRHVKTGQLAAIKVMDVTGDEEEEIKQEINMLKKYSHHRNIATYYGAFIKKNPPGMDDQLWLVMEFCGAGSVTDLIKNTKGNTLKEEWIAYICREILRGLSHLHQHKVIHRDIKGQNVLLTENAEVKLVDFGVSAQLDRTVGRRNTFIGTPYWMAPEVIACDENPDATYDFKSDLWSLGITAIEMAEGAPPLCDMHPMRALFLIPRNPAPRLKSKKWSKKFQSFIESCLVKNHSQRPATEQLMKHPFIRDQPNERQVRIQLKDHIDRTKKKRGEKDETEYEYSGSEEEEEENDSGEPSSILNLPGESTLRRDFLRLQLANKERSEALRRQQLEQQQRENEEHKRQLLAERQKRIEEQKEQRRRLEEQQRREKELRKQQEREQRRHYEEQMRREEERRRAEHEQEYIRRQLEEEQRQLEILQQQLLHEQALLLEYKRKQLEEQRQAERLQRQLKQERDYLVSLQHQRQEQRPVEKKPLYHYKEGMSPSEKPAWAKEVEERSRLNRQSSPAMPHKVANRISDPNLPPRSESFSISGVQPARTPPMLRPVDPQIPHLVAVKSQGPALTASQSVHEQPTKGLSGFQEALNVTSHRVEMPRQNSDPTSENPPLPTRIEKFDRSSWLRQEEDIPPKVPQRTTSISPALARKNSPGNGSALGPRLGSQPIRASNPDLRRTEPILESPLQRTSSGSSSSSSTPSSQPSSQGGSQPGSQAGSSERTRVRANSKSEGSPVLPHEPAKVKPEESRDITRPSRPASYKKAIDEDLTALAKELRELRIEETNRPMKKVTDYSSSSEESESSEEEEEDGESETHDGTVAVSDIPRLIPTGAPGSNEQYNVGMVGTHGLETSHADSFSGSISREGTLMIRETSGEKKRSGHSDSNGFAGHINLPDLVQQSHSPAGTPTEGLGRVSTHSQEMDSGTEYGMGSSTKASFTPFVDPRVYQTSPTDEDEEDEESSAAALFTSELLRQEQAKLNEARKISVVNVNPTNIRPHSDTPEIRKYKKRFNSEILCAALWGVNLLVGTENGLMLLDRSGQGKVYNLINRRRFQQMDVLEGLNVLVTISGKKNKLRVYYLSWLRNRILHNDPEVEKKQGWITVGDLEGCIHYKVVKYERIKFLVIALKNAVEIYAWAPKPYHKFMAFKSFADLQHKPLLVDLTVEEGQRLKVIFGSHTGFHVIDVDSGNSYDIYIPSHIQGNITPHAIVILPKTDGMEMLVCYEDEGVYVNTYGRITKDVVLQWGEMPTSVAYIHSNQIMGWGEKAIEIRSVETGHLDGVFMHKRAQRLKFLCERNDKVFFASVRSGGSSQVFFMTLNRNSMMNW

Question: Which inhibition at 0.15 µM does the source give for `CSc1ccc(CNC(=O)c2ccc3c(c2)NC(=O)C(=Cc2cccc(Cl)c2)O3)cc1` [F389-0746] here?
Answer: 27%

target: T2, MAP4K4 (Homo sapiens, UniProt O95819); assay: Z'LYTE kinase activity assay; format: biochemical; settings: 1 h incubation with ATP
T2 construct: recombinant kinase of the ThermoFisher SelectScreen service
T2 sequence (O95819 2-1239): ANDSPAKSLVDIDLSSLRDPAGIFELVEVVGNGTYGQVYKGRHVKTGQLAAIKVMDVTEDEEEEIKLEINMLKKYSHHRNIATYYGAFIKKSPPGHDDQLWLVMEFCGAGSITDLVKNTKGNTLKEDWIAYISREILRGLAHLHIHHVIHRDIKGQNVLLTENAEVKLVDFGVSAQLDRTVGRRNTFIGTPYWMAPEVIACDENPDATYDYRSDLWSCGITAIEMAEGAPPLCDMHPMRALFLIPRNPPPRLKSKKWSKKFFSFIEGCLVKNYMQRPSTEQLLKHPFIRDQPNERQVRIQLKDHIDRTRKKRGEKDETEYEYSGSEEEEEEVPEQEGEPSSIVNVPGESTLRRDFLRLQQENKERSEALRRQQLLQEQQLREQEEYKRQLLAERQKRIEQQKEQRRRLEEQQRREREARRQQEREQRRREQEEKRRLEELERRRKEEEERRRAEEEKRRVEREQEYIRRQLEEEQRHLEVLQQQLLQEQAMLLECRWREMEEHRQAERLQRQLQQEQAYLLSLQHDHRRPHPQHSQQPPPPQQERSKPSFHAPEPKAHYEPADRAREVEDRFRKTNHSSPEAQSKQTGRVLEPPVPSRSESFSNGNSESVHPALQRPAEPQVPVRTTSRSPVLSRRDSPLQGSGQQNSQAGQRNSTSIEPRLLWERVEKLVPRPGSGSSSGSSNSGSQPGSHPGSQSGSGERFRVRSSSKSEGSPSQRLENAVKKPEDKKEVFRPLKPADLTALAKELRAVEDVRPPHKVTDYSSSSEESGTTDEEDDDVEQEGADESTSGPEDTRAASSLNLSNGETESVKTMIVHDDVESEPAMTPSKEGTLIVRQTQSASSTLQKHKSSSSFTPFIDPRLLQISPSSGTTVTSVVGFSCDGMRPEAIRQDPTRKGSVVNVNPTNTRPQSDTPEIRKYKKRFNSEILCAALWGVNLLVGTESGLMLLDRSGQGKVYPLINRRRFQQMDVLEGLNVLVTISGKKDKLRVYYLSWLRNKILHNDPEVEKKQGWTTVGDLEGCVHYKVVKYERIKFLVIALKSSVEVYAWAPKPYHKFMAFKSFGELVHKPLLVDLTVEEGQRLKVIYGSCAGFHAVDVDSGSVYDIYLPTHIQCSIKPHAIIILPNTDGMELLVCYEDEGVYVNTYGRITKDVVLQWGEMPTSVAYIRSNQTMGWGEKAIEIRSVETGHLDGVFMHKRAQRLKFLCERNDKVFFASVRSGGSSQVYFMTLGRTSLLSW

Question: `CN1CCN(CCNC(=O)c2ccc3c(c2)NC(=O)C(=Cc2ccc(Cl)cc2)O3)CC1` [F389-0167] was tested. Which IC50 did it give?
Answer: 276 nM

Question: How did the IC50 turn out when `CCOc1ccc(CNC(=O)c2ccc3c(c2)NC(=O)C(=Cc2ccc(Cl)cc2)O3)cc1OC` [F389-0169] was run?
Answer: 337 nM

Question: How did the IC50 turn out when `O=C1Nc2cc(C(=O)NCc3cccc(F)c3)ccc2OC1=Cc1ccc(Cl)cc1` [F389-0183] was run?
Answer: 334 nM

Question: `COc1ccc(CCNC(=O)c2ccc3c(c2)NC(=O)C(=Cc2cccc(Cl)c2)O3)cc1OC` [F389-0604] was tested. Which IC50 did it give?
Answer: 189 nM

Question: With `CCOc1ccc(CNC(=O)c2ccc3c(c2)NC(=O)C(=Cc2cccc(Cl)c2)O3)cc1OC` [F389-0745] as the molecule, how does the IC50 read?
Answer: 384 nM

Question: For `CSc1ccc(CNC(=O)c2ccc3c(c2)NC(=O)C(=Cc2cccc(Cl)c2)O3)cc1` [F389-0746], which IC50 is on record?
Answer: 121 nM

target: T3, MAP4K6 (Homo sapiens, UniProt Q8N4C8); assay: kinase profiling panel; format: biochemical; settings: read-out: % inhibition at 150 nM
T3 construct: gene MINK1; recombinant kinase of a commercial 81-kinase panel
T3 sequence (Q8N4C8 whole entry): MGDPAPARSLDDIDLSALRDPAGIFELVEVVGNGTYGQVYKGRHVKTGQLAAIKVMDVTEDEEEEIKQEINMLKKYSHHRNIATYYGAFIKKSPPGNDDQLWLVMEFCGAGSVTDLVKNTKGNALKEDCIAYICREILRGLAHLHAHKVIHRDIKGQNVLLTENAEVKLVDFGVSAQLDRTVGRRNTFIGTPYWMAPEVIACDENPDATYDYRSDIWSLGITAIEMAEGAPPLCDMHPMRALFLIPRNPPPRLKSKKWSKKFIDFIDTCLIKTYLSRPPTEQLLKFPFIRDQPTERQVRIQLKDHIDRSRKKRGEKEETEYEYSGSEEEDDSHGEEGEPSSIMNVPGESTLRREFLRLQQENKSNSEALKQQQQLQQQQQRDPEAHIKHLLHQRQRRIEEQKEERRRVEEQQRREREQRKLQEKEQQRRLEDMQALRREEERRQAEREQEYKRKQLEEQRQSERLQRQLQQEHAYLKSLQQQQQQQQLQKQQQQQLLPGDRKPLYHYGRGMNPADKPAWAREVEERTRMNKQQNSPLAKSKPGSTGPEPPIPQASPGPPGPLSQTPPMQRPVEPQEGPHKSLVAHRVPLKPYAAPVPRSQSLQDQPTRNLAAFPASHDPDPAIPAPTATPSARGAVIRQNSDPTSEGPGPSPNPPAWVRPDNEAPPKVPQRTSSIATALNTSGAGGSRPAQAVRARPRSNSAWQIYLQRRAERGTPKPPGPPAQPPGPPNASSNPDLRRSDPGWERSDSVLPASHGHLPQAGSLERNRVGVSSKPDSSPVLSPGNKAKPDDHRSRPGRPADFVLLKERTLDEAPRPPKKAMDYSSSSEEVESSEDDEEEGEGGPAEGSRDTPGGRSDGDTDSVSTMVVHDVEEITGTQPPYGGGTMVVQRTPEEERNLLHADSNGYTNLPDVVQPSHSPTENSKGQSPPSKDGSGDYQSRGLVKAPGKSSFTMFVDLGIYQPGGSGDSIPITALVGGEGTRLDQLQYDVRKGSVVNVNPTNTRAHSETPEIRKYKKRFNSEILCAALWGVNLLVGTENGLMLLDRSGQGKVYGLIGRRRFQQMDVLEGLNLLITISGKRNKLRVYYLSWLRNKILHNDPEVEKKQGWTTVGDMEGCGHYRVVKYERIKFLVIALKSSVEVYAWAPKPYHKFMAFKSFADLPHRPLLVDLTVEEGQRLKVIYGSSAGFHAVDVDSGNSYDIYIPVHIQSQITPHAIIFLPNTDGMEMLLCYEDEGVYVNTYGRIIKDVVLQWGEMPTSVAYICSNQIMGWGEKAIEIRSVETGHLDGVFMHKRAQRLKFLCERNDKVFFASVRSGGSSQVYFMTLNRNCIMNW

Question: Which inhibition at 0.15 µM does the source give for `CSc1ccc(CNC(=O)c2ccc3c(c2)NC(=O)C(=Cc2cccc(Cl)c2)O3)cc1` [F389-0746] here?
Answer: 44%

target: T4, MAP4K5 (Homo sapiens, UniProt Q9Y4K4); assay: kinase profiling panel; format: biochemical; settings: read-out: % inhibition at 150 nM
T4 construct: recombinant kinase of a commercial 81-kinase panel
T4 sequence (Q9Y4K4 whole entry): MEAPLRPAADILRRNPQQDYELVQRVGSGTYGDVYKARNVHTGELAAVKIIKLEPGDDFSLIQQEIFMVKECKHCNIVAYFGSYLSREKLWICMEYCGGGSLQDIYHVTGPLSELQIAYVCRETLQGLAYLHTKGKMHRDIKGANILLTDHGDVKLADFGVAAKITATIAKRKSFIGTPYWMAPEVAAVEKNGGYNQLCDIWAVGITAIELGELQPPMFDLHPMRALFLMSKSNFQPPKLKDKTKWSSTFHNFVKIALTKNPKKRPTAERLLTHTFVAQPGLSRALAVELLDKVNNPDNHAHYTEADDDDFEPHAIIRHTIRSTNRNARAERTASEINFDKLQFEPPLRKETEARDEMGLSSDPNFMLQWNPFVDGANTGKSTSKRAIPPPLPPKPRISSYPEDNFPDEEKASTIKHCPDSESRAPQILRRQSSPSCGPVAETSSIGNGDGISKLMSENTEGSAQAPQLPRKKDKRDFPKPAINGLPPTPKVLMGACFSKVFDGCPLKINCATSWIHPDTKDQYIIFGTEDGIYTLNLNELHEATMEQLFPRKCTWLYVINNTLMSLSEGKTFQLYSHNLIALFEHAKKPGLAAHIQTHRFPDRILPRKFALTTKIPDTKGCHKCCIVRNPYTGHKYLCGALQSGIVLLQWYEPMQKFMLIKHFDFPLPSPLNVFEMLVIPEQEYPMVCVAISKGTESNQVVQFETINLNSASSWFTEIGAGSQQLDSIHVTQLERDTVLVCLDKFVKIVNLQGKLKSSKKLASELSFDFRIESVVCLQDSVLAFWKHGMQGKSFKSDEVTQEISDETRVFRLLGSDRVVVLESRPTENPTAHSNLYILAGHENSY

Question: `CSc1ccc(CNC(=O)c2ccc3c(c2)NC(=O)C(=Cc2cccc(Cl)c2)O3)cc1` [F389-0746] was tested. Which inhibition at 0.15 µM did it give?
Answer: 17%

target: T2, MAP4K4; assay: Z'LYTE kinase activity assay; format: biochemical; settings: not given
Excerpt: Z'LYTE kinase activity assay on MAP4K4

Question: For `COc1ccccc1CNC(=O)c1ccc2c(c1)NC(=O)C(=Cc1ccc(Cl)cc1)O2` [F389-0092], which inhibition at 1 µM is on record?
Answer: 68%

Question: How did the inhibition at 1 µM turn out when `COc1cccc(CNC(=O)c2ccc3c(c2)NC(=O)C(=Cc2ccc(Cl)cc2)O3)c1` [F389-0093] was run?
Answer: 70%

Question: For `O=C1Nc2cc(C(=O)NCc3ccccc3F)ccc2OC1=Cc1ccc(Cl)cc1` [F389-0161], which inhibition at 1 µM is on record?
Answer: 72%

Question: With `CCOc1cc(CNC(=O)c2ccc3c(c2)NC(=O)C(=Cc2ccc(Cl)cc2)O3)ccc1OC` [F389-0164] as the molecule, how does the inhibition at 1 µM read?
Answer: 67%

Question: `O=C1Nc2cc(C(=O)NCc3ccccc3Cl)ccc2OC1=Cc1cccc(Cl)c1` [F389-0592] was tested. Which inhibition at 1 µM did it give?
Answer: 57%

Question: How did the inhibition at 1 µM turn out when `COc1cccc(CNC(=O)c2ccc3c(c2)NC(=O)C(=Cc2cccc(Cl)c2)O3)c1` [F389-0669] was run?
Answer: 59%

Question: How did the inhibition at 1 µM turn out when `CCOc1ccccc1CNC(=O)c1ccc2c(c1)NC(=O)C(=Cc1cccc(Cl)c1)O2` [F389-0738] was run?
Answer: 57%

Question: For `CCOc1ccc(CNC(=O)c2ccc3c(c2)NC(=O)C(=Cc2cccc(Cl)c2)O3)cc1` [F389-0750], which inhibition at 1 µM is on record?
Answer: 67%

Question: For `O=C1Nc2cc(C(=O)NCc3cccc(F)c3)ccc2OC1=Cc1cccc(Cl)c1` [F389-0759], which inhibition at 1 µM is on record?
Answer: 61%
